From patent US11535622B2, “Pyrrolo[1,2-b] pyridazine derivatives” (Gilead Sciences, Inc., priority 2018, dated 2022)
Like-named read-outs stand apart in the source and are kept apart here.

Columns and labels:
IRAK4 enzyme = IRAK4 enzyme (Homo sapiens (Human), UniProt Q9NWZ3); assay: IRAK4 biochemical assay (HTRF/TR-FRET); conditions: 500 μM ATP
Method: IRAK4 enzyme (Carna Biosciences, Chuo-ku, Kobe, Japan) activity was measured by detecting phosphorylated peptide substrate formation using an antibody against the phosphorylated peptide substrate. This is a time-resolved fluorescence resonance energy transfer (TR-FRET) immunoassay, based on the STK1 KnEASE Assay (Cisbio, Bedford, Mass.). […] Compounds diluted in DMSO were spotted into 384 well plates using a Labcyte® Echo 550 Liquid Handling System prior to addition of IRAK4 enzyme and peptide substrate. Reaction solutions were delivered using a Multi-Flo (Bio-Tek Instruments). The enzyme and peptide solution was incubated with compound for 15 minutes at room temp before the reaction was initiated by the addition of ATP.

TNFα = assay: IRAK4 monocyte TNFα cell based assay (LPS stimulated); parameters: species or system human
Method: IRAK4 Monocyte TNFα Cell Based Assay Procedure:
The cell suspension was then plated at a density of 5,000 cells/well onto black 384 well Greiner clear bottom plates. Plates were pre-spotted with test compounds and serially diluted in DMSO where 40 nL/well were delivered using the Echo 550 acoustic liquid dispenser (Labcyte®) for a final DMSO concentration of 0.1%. Plated cells were treated with compound for 1 hour at 37° C. Cells were then stimulated with 50 pg/ml of LPS (Sigma) excluding outside columns of plate used for unstimulated cell control wells. Cells were incubated for an additional 4 hours at 37° C. Cells were then spun out of the media and 5 μl of sample were taken and analyzed for total TNFα content using the TR-FRET Human TNFα detection system (CisBio). This system utilizes two labeled antibodies (cryptate and XL665) that bind to two different epitopes of the TNFα molecule and produce FRET signal proportional to the concentration of TNFα in the sample. Detection antibodies are mixed 50:50 and 5 μL were dispensed into each well. Plates were covered with clear seals and incubated at room temp overnight. […] Percent of control was calculated as follows: % Control=100×(RatioSample−Ratio0% stimulation)/(Ratio100% Stimulation−Ratio0% Stimulation) where unstimulated cells (0% stimulation) were the negative control and stimulated cells (100% stimulation) were used as the positive control.

[1] = test system: human cryopreserved hepatocytes; assay: Metabolic stability in cryopreserved hepatocytes; assay type: in vitro ADME; conditions: 1 μM test compound
Method: Metabolic Stability in Cryopreserved Hepatocytes: Complete HT medium was prepared by the addition of 1 mL Torpedo Antibiotic Mix to 45 mL of InVitroGRO™ HT medium. Supplemented KHB medium consisted of KrebsHenseleit buffer with amikacin (84 μg/mL), calcium chloride (1 mM), gentamicin (84 μg/mL), HEPES (20 mM), heptanoic acid (4.2 μM) and sodium bicarbonate (28.5 mM) and the pH was adjusted to 7.4 at 37° C. using 1 M NaOH or 1 M HCl. The human cryopreserved hepatocytes were pooled from ten adult donors (Celsis, Lot: HBZ).
Vials containing cryopreserved hepatocytes were removed from liquid nitrogen and immediately immersed in a 37° C. water bath. The vials were shaken gently until the contents had thawed and were then immediately emptied into 48 mL of pre warmed Complete HT Medium in a 50 mL conical tube. Cells remaining in the vial were resuspended with 1.0 mL of pre warmed Complete HT Medium and added to the conical tube. The tube was capped and then gently inverted several times to resuspend the hepatocytes. The cell suspension was centrifuged at 50×g at room temperature for 5 minutes and the supernatant discarded. The cell pellet was loosened by gently swirling the centrifuge tube and Supplemented KHB medium was added to obtain a target density of 2×10^6 cells/mL. The total cell count and the proportion of viable cells were determined by Trypan Blue dye exclusion using a hemocytometer.
For incubations, aliquots of hepatocyte suspension (250 μL containing 500,000 cells) were added to 250 μL of 2 μM test compound or metabolic stability controls in supplemented KHB in duplicate wells in a 24-well plate. Final concentration in the incubations were 1×10^6 cells/mL and 1 μM test compound. 7-Hydroxycoumarin and testosterone, compounds known to be efficiently metabolized by hepatocytes, were used as positive controls in parallel incubations ([…] final concentration of each compound). The incubation was carried out with gentle shaking at 37° C. under a humid atmosphere of 95% air/5% CO2 (v/v). Aliquots (50 μL) were removed after 0, 1, 3, and 6 hours and added to 100 μL IS/Q quenching solution. After termination, 150 μL of water was added, the plates were centrifuged at 3000×g for 10 min, and aliquots of the supernatant were analyzed on a Micromass Quattro Premier mass spectrometer coupled to an Agilent 1200 Series HPLC system with a Leap Technologies HTC PAL autosampler as described below.
Liquid Chromatography-Mass Spectrometry: Quantification of test compound and metabolic stability controls was performed by analyte/internal standard peak area ratios (PAR) measured on a Micromass Quattro Premier XL tandem triple quadrupole mass spectrometer coupled to an Agilent 1200 Series HPLC system with a Leap Technologies HTC PAL autosampler. The column used was a Phenomenex® MercuryMS™, Synergi Max-RP (100 Å pore size, 2.5 μm particle size, 20×2.0 mm). Mobile Phase A consisted of 0.2% (v/v) formic acid in 99% water/1% acetonitrile (v/v). Mobile Phase B consisted of 0.2% (v/v) formic acid in 5% water/95% acetonitrile (v/v). Elution was achieved by the following series of linear gradients: initial conditions of 0% B, holding for 30 s, then increasing to 100% B over 90 s, and then returning to the initial conditions over 1 s. The system was allowed to re-equilibrate for a minimum of 60 s between injections. The sample injection volume was 10 μL.

[2] = pKa determination (pKa PRO Analyzer); assay type: physicochemical
Method: Sample Preparation: A stock solution of test compound in dimethyl sulfoxide (DMSO) having a final concentration of 10 mM was prepared and used in all experiments. The DMSO stocks were thawed, spun, and sonicated in a 40° C. water bath to facilitate dissolution.
The compounds were then transferred into 24 consecutive wells of a 96 well PCR plate for analysis with the aqueous method. […] The compounds were transferred into 24 consecutive wells of a 96 well plate for analysis using the co-solvent method.
Analysis: All data was obtained using a pKa PRO Analyzer (AATI, Ames, Iowa). For the aqueous method, an electrophoretic separation is performed in parallel across 24 different pH values, providing a direct measure of overall compound charge vs. pH. The compounds are detected by UV at 228 nm. The average pH spacing between buffer points is 0.4 pH units covering a typical pH range of 1.7-11.2.
The average pH spacing between buffer points is 0.4 pH units covering a pH range of 1.7-11.2. Four consecutive CE runs are performed for each compound starting with 60% co-solvent buffers and decreasing to 30% co-solvent buffers.
Norfloxacin is used as a daily performance-indicating standard.
Calculation of Results: The total number of pKa values is predicted by relating mobility and compound molecular weight using pKa Estimator® software (AATI, Ames, Iowa).

[3] = target: cloned hERG potassium channel encoded by the KCNH2 gene (Homo sapiens (Human), UniProt Q12809); assay: Automated hERG assay (FASTPatch, QPatch); assay type: cell-based; conditions: HEK293T cells, patch clamp, 0.3-30 uM
Method: The FASTPatch® Assay (Charles River) was used to examine the in vitro effects of various compounds on the cloned hERG potassium channel encoded by the KCNH2 gene and stably expressed in HEK293T cells. Vehicle, test and control article formulations were prepared by diluting DMSO stock solutions in HB-PS (HEPES-buffered physiological saline solution), and were delivered to cells via the QPatch robot pipetting system to a final concentration of 0.3% DMSO. […] The positive control, 50 nM Cisparide, was applied in the same manner. Cell membrane currents were recorded at room temperature with up to 48 parallel patch clamp amplifiers in the QPatch HT® or QPatch HTX® system, and only cells with validated whole-cell recordings (seal resistance ≥200 MO and leak current ≤25% channel current) were used. Onset and block of hERG current was measured using a stimulus voltage pattern consisting of a 500 ms prepulse to −40 mV, a 2-second activating pulse to +40 mV, followed by a 2-second test pulse to −40 mV. The pulse pattern was repeated continuously at 10-second intervals from a holding potential of −80 mV. TurboSol analysis for test compound solubility was performed for each concentration tested using a Nephelostar reader measuring light scatter from a 635 nm laser source. […]

[4] = human monocytes, LPS 50 pg/ml, TNFα by TR-FRET, read-out: EC50 TNF

Sequence of IRAK4 enzyme (Q9NWZ3 whole entry): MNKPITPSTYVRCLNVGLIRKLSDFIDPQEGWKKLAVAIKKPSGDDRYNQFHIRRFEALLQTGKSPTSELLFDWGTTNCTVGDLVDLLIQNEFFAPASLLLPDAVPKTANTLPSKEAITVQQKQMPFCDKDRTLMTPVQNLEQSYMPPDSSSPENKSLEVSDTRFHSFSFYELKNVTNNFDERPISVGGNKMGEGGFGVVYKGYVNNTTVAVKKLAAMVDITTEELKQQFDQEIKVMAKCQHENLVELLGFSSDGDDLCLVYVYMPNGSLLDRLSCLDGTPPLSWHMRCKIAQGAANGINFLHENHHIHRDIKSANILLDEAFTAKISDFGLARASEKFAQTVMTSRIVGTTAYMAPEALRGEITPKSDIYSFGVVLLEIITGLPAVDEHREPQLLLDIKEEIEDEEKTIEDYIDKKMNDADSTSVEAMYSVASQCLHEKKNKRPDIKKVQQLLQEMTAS
Sequence of cloned hERG potassium channel encoded by the KCNH2 gene (Q12809 whole entry): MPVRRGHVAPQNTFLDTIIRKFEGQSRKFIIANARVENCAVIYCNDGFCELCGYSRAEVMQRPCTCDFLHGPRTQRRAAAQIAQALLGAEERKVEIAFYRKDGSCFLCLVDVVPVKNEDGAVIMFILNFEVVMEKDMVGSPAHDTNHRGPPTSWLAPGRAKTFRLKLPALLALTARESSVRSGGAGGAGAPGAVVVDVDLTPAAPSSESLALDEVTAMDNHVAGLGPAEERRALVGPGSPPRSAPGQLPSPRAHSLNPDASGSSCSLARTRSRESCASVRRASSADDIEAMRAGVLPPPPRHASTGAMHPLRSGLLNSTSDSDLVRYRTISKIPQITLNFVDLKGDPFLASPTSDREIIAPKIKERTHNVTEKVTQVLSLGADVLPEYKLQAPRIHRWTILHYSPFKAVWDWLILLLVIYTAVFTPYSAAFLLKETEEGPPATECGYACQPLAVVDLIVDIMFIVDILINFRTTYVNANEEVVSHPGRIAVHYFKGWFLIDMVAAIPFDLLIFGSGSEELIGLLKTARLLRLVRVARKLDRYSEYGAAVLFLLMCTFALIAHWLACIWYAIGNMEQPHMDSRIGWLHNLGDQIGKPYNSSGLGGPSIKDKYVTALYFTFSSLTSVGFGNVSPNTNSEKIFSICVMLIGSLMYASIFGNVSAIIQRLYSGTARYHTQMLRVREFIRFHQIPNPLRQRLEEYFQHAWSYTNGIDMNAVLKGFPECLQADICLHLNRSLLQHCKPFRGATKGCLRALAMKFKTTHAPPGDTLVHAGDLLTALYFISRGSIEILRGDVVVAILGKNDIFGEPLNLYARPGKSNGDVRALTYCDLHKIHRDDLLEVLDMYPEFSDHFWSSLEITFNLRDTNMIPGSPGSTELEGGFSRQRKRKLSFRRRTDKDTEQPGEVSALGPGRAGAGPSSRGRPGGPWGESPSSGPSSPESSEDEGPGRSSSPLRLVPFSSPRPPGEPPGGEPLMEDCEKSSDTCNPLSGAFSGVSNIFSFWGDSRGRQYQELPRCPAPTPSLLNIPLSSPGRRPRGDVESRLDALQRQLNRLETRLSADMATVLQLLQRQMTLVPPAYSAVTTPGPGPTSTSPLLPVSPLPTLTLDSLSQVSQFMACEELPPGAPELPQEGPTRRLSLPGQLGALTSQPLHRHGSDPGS

Structure (SMILES)	IC50 (IRAK4 enzyme)	EC50 (TNFα; [4])	EC50 (TNFα; protein adjusted, competitive equilibrium dialysis, human plasma versus CCM with 10% FBS, read-out: Protein Adj. EC50 TNF)	Human Hep. Stability [1]	pKa [2]	IC50 [3]
CC(C)Nc1cc(-c2ccc3cc(C#N)cnn23)ncc1C(=O)NC[C@@H](F)C(C)(C)O [A, reference compound]	< 1 nM	23 nM	504 nM	3.33 mL/min/kg	6.1	3900 nM
CNc1cc(-c2ccc3cc(C#N)cnn23)ncc1C(=O)NC[C@@H](F)C(C)(C)O [Compound 1, (R)-6-(3-cyanopyrrolo[1,2-b]pyridazin-7-yl)-N-(2-fluoro-3-hydroxy-3-methylbutyl)-4-(methylamino)nicotinamide]				0.83 mL/min/kg	6.6	
CC(C)(O)[C@H](F)CNC(=O)c1cnc(-c2ccc3cc(C#N)cnn23)cc1NCC#N [Compound 2, (R)-4-((cyanomethyl)amino)-6-(3-cyanopyrrolo[1,2-b]pyridazin-7-yl)-N-(2-fluoro-3-hydroxy-3-methylbutyl)nicotinamide]				2.17 mL/min/kg	5.1	
C[C@H](C#N)Nc1cc(-c2ccc3cc(C#N)cnn23)ncc1C(=O)NC[C@@H](F)C(C)(C)O [Compound 3, 4-(((R)-1-cyanoethyl)amino)-6-(3-cyanopyrrolo[1,2-b]pyridazin-7-yl)-N-((R)-2-fluoro-3-hydroxy-3-methylbutyl)nicotinamide]				1.3 mL/min/kg	4.9	
CC[C@H](C#N)Nc1cc(-c2ccc3cc(C#N)cnn23)ncc1C(=O)NC[C@@H](F)C(C)(C)O [Compound 5, 4-(((R)-1-cyanopropyl)amino)-6-(3-cyanopyrrolo[1,2-b]pyridazin-7-yl)-N-((R)-2-fluoro-3-hydroxy-3-methylbutyl)nicotinamide]	1 nM	60 nM				
CC[C@@H](C#N)Nc1cc(-c2ccc3cc(C#N)cnn23)ncc1C(=O)NC[C@@H](F)C(C)(C)O [Compound 6, 4-(((S)-1-cyanopropyl)amino)-6-(3-cyanopyrrolo[1,2-b]pyridazin-7-yl)-N-((R)-2-fluoro-3-hydroxy-3-methylbutyl)nicotinamide]	5 nM	267 nM				
CC(C)(O)[C@H](F)CNC(=O)c1cnc(-c2ccc3cc(C#N)cnn23)cc1NCCC#N [Compound 7, (R)-4-((2-cyanoethyl)amino)-6-(3-cyanopyrrolo[1,2-b]pyridazin-7-yl)-N-(2-fluoro-3-hydroxy-3-methylbutyl)nicotinamide]		164 nM				
CC(C)(O)[C@H](F)CNC(=O)c1cnc(-c2ccc3cc(C#N)cnn23)cc1NCCCC#N [Compound 8, (R)-4-((3-cyanopropyl)amino)-6-(3-cyanopyrrolo[1,2-b]pyridazin-7-yl)-N-(2-fluoro-3-hydroxy-3-methylbutyl)nicotinamide]	< 1 nM	33 nM		2.33 mL/min/kg	5.9	3500 nM
CC(C)(C#N)Nc1cc(-c2ccc3cc(C#N)cnn23)ncc1C(=O)NC[C@@H](F)C(C)(C)O [Compound 9, (R)-4-((2-cyanopropan-2-yl)amino)-6-(3-cyanopyrrolo[1,2-b]pyridazin-7-yl)-N-(2-fluoro-3-hydroxy-3-methylbutyl)nicotinamide]	< 1 nM	49 nM		4.33 mL/min/kg	4.8	
CC(C)(O)[C@H](F)CNC(=O)c1cnc(-c2ccc3cc(C#N)cnn23)cc1NC1(C#N)CC1 [Compound 10, (R)-4-((1-cyanocyclopropyl)amino)-6-(3-cyanopyrrolo[1,2-b]pyridazin-7-yl)-N-(2-fluoro-3-hydroxy-3-methylbutyl)nicotinamide]	< 1 nM	35 nM		3.67 mL/min/kg		
